Experimental data published in ChEMBL document CHEMBL1909294, “Translating clinical findings into knowledge in drug safety evaluation--drug induced liver injury prediction system (DILIps)” (PLoS Comput Biol, 2011).

How the values were obtained:
Hepatotoxicity [1] = test system: Hepatotoxicity;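 as to HepSE Combined Scores: combined hepatic side effect score as listed in the training data of the Drug Induced Liver Injury Prediction System (DILIps)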;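 as to HepSE bilirubinemia: bilirubinemia hepatic side effect score drawn from the DILIps training data, a prediction system for drug-induced liver injury; call rule not given here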;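 as to HepSE cholecystitis: Cholecystitis-related hepatic side effect score drawn from the DILIps (drug-induced liver injury prediction) training data set; call rule not given here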;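 as to HepSE cirrhosis: cirrhosis hepatic side effect score taken from the DILIps (drug-induced liver injury prediction) training set; call rule not given here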;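 as to HepSE jaundice: Jaundice-related hepatic side-effect score drawn from the training data of the DILIps (drug-induced liver injury prediction system); call rule not given here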; as to HepSE liver disease: call rule not given here;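 as to HepSE liver fatty: hepatic side effect score for fatty liver, taken from the DILIps training set for predicting drug-induced liver injury; call rule not given here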
Hepatotoxicity [2] = test system: Hepatotoxicity; remark: listed apart in the source;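 as to HepSE Combined Scores: combined hepatic side effect score as listed in the training data of the Drug Induced Liver Injury Prediction System (DILIps)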;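 as to HepSE bilirubinemia: bilirubinemia hepatic side effect score drawn from the DILIps training data, a prediction system for drug-induced liver injury; call rule not given here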;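 as to HepSE cholecystitis: Cholecystitis-related hepatic side effect score drawn from the DILIps (drug-induced liver injury prediction) training data set; call rule not given here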;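 as to HepSE cirrhosis: cirrhosis hepatic side effect score taken from the DILIps (drug-induced liver injury prediction) training set; call rule not given here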;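 as to HepSE jaundice: Jaundice-related hepatic side-effect score drawn from the training data of the DILIps (drug-induced liver injury prediction system); call rule not given here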; as to HepSE liver disease: call rule not given here;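 as to HepSE liver fatty: hepatic side effect score for fatty liver, taken from the DILIps training set for predicting drug-induced liver injury; call rule not given here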
Hepatotoxicity [3] = test system: Hepatotoxicity; remark: listed apart in the source;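 as to HepSE Combined Scores: combined hepatic side effect score as listed in the training data of the Drug Induced Liver Injury Prediction System (DILIps)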;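 as to HepSE bilirubinemia: bilirubinemia hepatic side effect score drawn from the DILIps training data, a prediction system for drug-induced liver injury; call rule not given here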;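 as to HepSE cholecystitis: Cholecystitis-related hepatic side effect score drawn from the DILIps (drug-induced liver injury prediction) training data set; call rule not given here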;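 as to HepSE cirrhosis: cirrhosis hepatic side effect score taken from the DILIps (drug-induced liver injury prediction) training set; call rule not given here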;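 as to HepSE jaundice: Jaundice-related hepatic side-effect score drawn from the training data of the DILIps (drug-induced liver injury prediction system); call rule not given here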; as to HepSE liver disease: call rule not given here
Hepatotoxicity [4] = test system: Hepatotoxicity; remark: listed apart in the source;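 as to HepSE Combined Scores: combined hepatic side effect score as listed in the training data of the Drug Induced Liver Injury Prediction System (DILIps)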;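 as to HepSE bilirubinemia: bilirubinemia hepatic side effect score drawn from the DILIps training data, a prediction system for drug-induced liver injury; call rule not given here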;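 as to HepSE cholecystitis: Cholecystitis-related hepatic side effect score drawn from the DILIps (drug-induced liver injury prediction) training data set; call rule not given here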;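 as to HepSE cirrhosis: cirrhosis hepatic side effect score taken from the DILIps (drug-induced liver injury prediction) training set; call rule not given here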;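 as to HepSE jaundice: Jaundice-related hepatic side-effect score drawn from the training data of the DILIps (drug-induced liver injury prediction system); call rule not given here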; as to HepSE liver disease: call rule not given here
Hepatotoxicity [5] = test system: Hepatotoxicity; remark: listed apart in the source; as to HepSE liver disease: call rule not given here
Hepatotoxicity [6] = test system: Hepatotoxicity; remark: listed apart in the source; as to HepSE liver disease: call rule not given here
Hepatotoxicity [7] = test system: Hepatotoxicity; remark: listed apart in the source
Hepatotoxicity [8] = test system: Hepatotoxicity; remark: listed apart in the source
Hepatotoxicity [9] = test system: Hepatotoxicity; remark: listed apart in the source
Hepatotoxicity [10] = test system: Hepatotoxicity; remark: listed apart in the source
Hepatotoxicity [11] = test system: Hepatotoxicity; remark: listed apart in the source
Hepatotoxicity [12] = test system: Hepatotoxicity; remark: listed apart in the source
Hepatotoxicity [13] = test system: Hepatotoxicity; remark: listed apart in the source
Hepatotoxicity [14] = test system: Hepatotoxicity; remark: listed apart in the source

## CC#C[C@]1(O)CC[C@H]2[C@@H]3CCc4cc(O)ccc4[C@H]3CC[C@@]21C [ESTROGEN]
Hepatotoxicity [1]
  HepSE_Combined Scores: 1
Hepatotoxicity [2]
  HepSE_bilirubinemia: 0
Hepatotoxicity [3]
  HepSE_cirrhosis: 0
Hepatotoxicity [4]
  HepSE_liver disease: 0
Hepatotoxicity [5]
  HepSE_jaundice: 1
Hepatotoxicity [6]
  HepSE_cholecystitis: 0
Hepatotoxicity [7]
  HepSE_liver fatty: 0
Hepatotoxicity [8]
  HepSE_hepatitis: 0
Hepatotoxicity [9]
  HepSE_hepatic failure: 0
Hepatotoxicity [10]
  HepSE_hepatic necrosis: 0
Hepatotoxicity [11]
  HepSE_hepatomegaly: 0
Hepatotoxicity [12]
  HepSE_elevated liver function tests: 0
Hepatotoxicity [13]
  HepSE_cholelithiasis: 0
Hepatotoxicity [14]
  HepSE_liver function tests abnormal: 0

## C=C(CC)C(=O)c1ccc(OCC(=O)O)c(Cl)c1Cl [ETHACRYNIC ACID]
Hepatotoxicity [1]
  HepSE_Combined Scores: 2
Hepatotoxicity [2]
  HepSE_bilirubinemia: 0
Hepatotoxicity [3]
  HepSE_cirrhosis: 0
Hepatotoxicity [4]
  HepSE_liver disease: 0
Hepatotoxicity [5]
  HepSE_jaundice: 1
Hepatotoxicity [6]
  HepSE_cholecystitis: 0
Hepatotoxicity [7]
  HepSE_liver fatty: 0
Hepatotoxicity [8]
  HepSE_hepatitis: 0
Hepatotoxicity [9]
  HepSE_hepatic failure: 0
Hepatotoxicity [10]
  HepSE_hepatic necrosis: 0
Hepatotoxicity [11]
  HepSE_hepatomegaly: 0
Hepatotoxicity [12]
  HepSE_elevated liver function tests: 0
Hepatotoxicity [13]
  HepSE_cholelithiasis: 0
Hepatotoxicity [14]
  HepSE_liver function tests abnormal: 1

## CC[C@@H](CO)NCCN[C@@H](CC)CO [ETHAMBUTOL]
Hepatotoxicity [1]
  HepSE_Combined Scores: 2
Hepatotoxicity [2]
  HepSE_bilirubinemia: 0
Hepatotoxicity [3]
  HepSE_cirrhosis: 0
Hepatotoxicity [4]
  HepSE_liver disease: 0
Hepatotoxicity [5]
  HepSE_jaundice: 0
Hepatotoxicity [6]
  HepSE_cholecystitis: 0
Hepatotoxicity [7]
  HepSE_liver fatty: 0
Hepatotoxicity [8]
  HepSE_hepatitis: 1
Hepatotoxicity [9]
  HepSE_hepatic failure: 0
Hepatotoxicity [10]
  HepSE_hepatic necrosis: 0
Hepatotoxicity [11]
  HepSE_hepatomegaly: 0
Hepatotoxicity [12]
  HepSE_elevated liver function tests: 0
Hepatotoxicity [13]
  HepSE_cholelithiasis: 0
Hepatotoxicity [14]
  HepSE_liver function tests abnormal: 1

## CCc1cc(C(N)=S)ccn1 [ETHIONAMIDE]
Hepatotoxicity [1]; Liver
  HepSE_Combined Scores: 2
Hepatotoxicity [2]; Liver
  HepSE_bilirubinemia: 0
Hepatotoxicity [3]; Liver
  HepSE_cirrhosis: 0
Hepatotoxicity [4]; Liver
  HepSE_liver disease: 0
Hepatotoxicity [5]; Liver
  HepSE_jaundice: 1
Hepatotoxicity [6]; Liver
  HepSE_cholecystitis: 0
Hepatotoxicity [7]; Liver
  HepSE_liver fatty: 0
Hepatotoxicity [8]; Liver
  HepSE_hepatitis: 1
Hepatotoxicity [9]; Liver
  HepSE_hepatic failure: 0
Hepatotoxicity [10]; Liver
  HepSE_hepatic necrosis: 0
Hepatotoxicity [11]; Liver
  HepSE_hepatomegaly: 0
Hepatotoxicity [12]; Liver
  HepSE_elevated liver function tests: 0
Hepatotoxicity [13]; Liver
  HepSE_cholelithiasis: 0
Hepatotoxicity [14]; Liver
  HepSE_liver function tests abnormal: 0

## CCC1(C)CC(=O)NC1=O (configuration not stated) [ETHOSUXIMIDE]
Hepatotoxicity [1]
  HepSE_Combined Scores: 0
Hepatotoxicity [2]
  HepSE_bilirubinemia: 0
Hepatotoxicity [3]
  HepSE_cirrhosis: 0
Hepatotoxicity [4]
  HepSE_liver disease: 0
Hepatotoxicity [5]
  HepSE_jaundice: 0
Hepatotoxicity [6]
  HepSE_cholecystitis: 0
Hepatotoxicity [7]
  HepSE_liver fatty: 0
Hepatotoxicity [8]
  HepSE_hepatitis: 0
Hepatotoxicity [9]
  HepSE_hepatic failure: 0
Hepatotoxicity [10]
  HepSE_hepatic necrosis: 0
Hepatotoxicity [11]
  HepSE_hepatomegaly: 0
Hepatotoxicity [12]
  HepSE_elevated liver function tests: 0
Hepatotoxicity [13]
  HepSE_cholelithiasis: 0
Hepatotoxicity [14]
  HepSE_liver function tests abnormal: 0

## CCN1C(=O)NC(c2ccccc2)C1=O (configuration not stated) [ETHOTOIN]
Hepatotoxicity [1]
  HepSE_Combined Scores: 0
Hepatotoxicity [2]
  HepSE_bilirubinemia: 0
Hepatotoxicity [3]
  HepSE_cirrhosis: 0
Hepatotoxicity [4]
  HepSE_liver disease: 0
Hepatotoxicity [5]
  HepSE_jaundice: 0
Hepatotoxicity [6]
  HepSE_cholecystitis: 0
Hepatotoxicity [7]
  HepSE_liver fatty: 0
Hepatotoxicity [8]
  HepSE_hepatitis: 0
Hepatotoxicity [9]
  HepSE_hepatic failure: 0
Hepatotoxicity [10]
  HepSE_hepatic necrosis: 0
Hepatotoxicity [11]
  HepSE_hepatomegaly: 0
Hepatotoxicity [12]
  HepSE_elevated liver function tests: 0
Hepatotoxicity [13]
  HepSE_cholelithiasis: 0
Hepatotoxicity [14]
  HepSE_liver function tests abnormal: 0

## CC(O)(P(=O)(O)O)P(=O)(O)O [ETIDRONIC ACID]
Hepatotoxicity [1]
  HepSE_Combined Scores: 0
Hepatotoxicity [2]
  HepSE_bilirubinemia: 0
Hepatotoxicity [3]
  HepSE_cirrhosis: 0
Hepatotoxicity [4]
  HepSE_liver disease: 0
Hepatotoxicity [5]
  HepSE_jaundice: 0
Hepatotoxicity [6]
  HepSE_cholecystitis: 0
Hepatotoxicity [7]
  HepSE_liver fatty: 0
Hepatotoxicity [8]
  HepSE_hepatitis: 0
Hepatotoxicity [9]
  HepSE_hepatic failure: 0
Hepatotoxicity [10]
  HepSE_hepatic necrosis: 0
Hepatotoxicity [11]
  HepSE_hepatomegaly: 0
Hepatotoxicity [12]
  HepSE_elevated liver function tests: 0
Hepatotoxicity [13]
  HepSE_cholelithiasis: 0
Hepatotoxicity [14]
  HepSE_liver function tests abnormal: 0

## CCc1cccc2c3c([nH]c12)C(CC)(CC(=O)O)OCC3 (configuration not stated) [ETODOLAC]
Hepatotoxicity [1]
  HepSE_Combined Scores: 4
Hepatotoxicity [2]
  HepSE_bilirubinemia: 0
Hepatotoxicity [3]
  HepSE_cirrhosis: 0
Hepatotoxicity [4]
  HepSE_liver disease: 0
Hepatotoxicity [5]
  HepSE_jaundice: 1
Hepatotoxicity [6]
  HepSE_cholecystitis: 0
Hepatotoxicity [7]
  HepSE_liver fatty: 0
Hepatotoxicity [8]
  HepSE_hepatitis: 1
Hepatotoxicity [9]
  HepSE_hepatic failure: 1
Hepatotoxicity [10]
  HepSE_hepatic necrosis: 1
Hepatotoxicity [11]
  HepSE_hepatomegaly: 0
Hepatotoxicity [12]
  HepSE_elevated liver function tests: 0
Hepatotoxicity [13]
  HepSE_cholelithiasis: 0
Hepatotoxicity [14]
  HepSE_liver function tests abnormal: 0

## CCOC(=O)c1cncn1[C@H](C)c1ccccc1 [ETOMIDATE]
Hepatotoxicity [1]
  HepSE_Combined Scores: 0
Hepatotoxicity [2]
  HepSE_bilirubinemia: 0
Hepatotoxicity [3]
  HepSE_cirrhosis: 0
Hepatotoxicity [4]
  HepSE_liver disease: 0
Hepatotoxicity [5]
  HepSE_jaundice: 0
Hepatotoxicity [6]
  HepSE_cholecystitis: 0
Hepatotoxicity [7]
  HepSE_liver fatty: 0
Hepatotoxicity [8]
  HepSE_hepatitis: 0
Hepatotoxicity [9]
  HepSE_hepatic failure: 0
Hepatotoxicity [10]
  HepSE_hepatic necrosis: 0
Hepatotoxicity [11]
  HepSE_hepatomegaly: 0
Hepatotoxicity [12]
  HepSE_elevated liver function tests: 0
Hepatotoxicity [13]
  HepSE_cholelithiasis: 0
Hepatotoxicity [14]
  HepSE_liver function tests abnormal: 0

## COc1cc([C@@H]2c3cc4c(cc3[C@@H](O[C@@H]3O[C@@H]5CO[C@@H](C)O[C@H]5[C@H](O)[C@H]3O)[C@H]3COC(=O)[C@H]23)OCO4)cc(OC)c1O [ETOPOSIDE]
Hepatotoxicity [1]; Liver
  HepSE_Combined Scores: 0
Hepatotoxicity [2]; Liver
  HepSE_bilirubinemia: 0
Hepatotoxicity [3]; Liver
  HepSE_cirrhosis: 0
Hepatotoxicity [4]; Liver
  HepSE_liver disease: 0
Hepatotoxicity [5]; Liver
  HepSE_jaundice: 0
Hepatotoxicity [6]; Liver
  HepSE_cholecystitis: 0
Hepatotoxicity [7]; Liver
  HepSE_liver fatty: 0
Hepatotoxicity [8]; Liver
  HepSE_hepatitis: 0
Hepatotoxicity [9]; Liver
  HepSE_hepatic failure: 0
Hepatotoxicity [10]; Liver
  HepSE_hepatic necrosis: 0
Hepatotoxicity [11]; Liver
  HepSE_hepatomegaly: 0
Hepatotoxicity [12]; Liver
  HepSE_elevated liver function tests: 0
Hepatotoxicity [13]; Liver
  HepSE_cholelithiasis: 0
Hepatotoxicity [14]; Liver
  HepSE_liver function tests abnormal: 0

## C=C1C[C@@H]2[C@H](CC[C@]3(C)C(=O)CC[C@@H]23)[C@@]2(C)C=CC(=O)C=C12 [EXEMESTANE]
Hepatotoxicity [1]
  HepSE_Combined Scores: 1
Hepatotoxicity [2]
  HepSE_bilirubinemia: 0
Hepatotoxicity [3]
  HepSE_cirrhosis: 0
Hepatotoxicity [4]
  HepSE_liver disease: 0
Hepatotoxicity [5]
  HepSE_jaundice: 0
Hepatotoxicity [6]
  HepSE_cholecystitis: 0
Hepatotoxicity [7]
  HepSE_liver fatty: 0
Hepatotoxicity [8]
  HepSE_hepatitis: 1
Hepatotoxicity [9]
  HepSE_hepatic failure: 0
Hepatotoxicity [10]
  HepSE_hepatic necrosis: 0
Hepatotoxicity [11]
  HepSE_hepatomegaly: 0
Hepatotoxicity [12]
  HepSE_elevated liver function tests: 0
Hepatotoxicity [13]
  HepSE_cholelithiasis: 0
Hepatotoxicity [14]
  HepSE_liver function tests abnormal: 0

## O=C1[C@H](CC[C@H](O)c2ccc(F)cc2)[C@@H](c2ccc(O)cc2)N1c1ccc(F)cc1 [EZETIMIBE]
Hepatotoxicity [1]
  HepSE_Combined Scores: 3
Hepatotoxicity [2]
  HepSE_bilirubinemia: 0
Hepatotoxicity [3]
  HepSE_cirrhosis: 0
Hepatotoxicity [4]
  HepSE_liver disease: 0
Hepatotoxicity [5]
  HepSE_jaundice: 0
Hepatotoxicity [6]
  HepSE_cholecystitis: 1
Hepatotoxicity [7]
  HepSE_liver fatty: 0
Hepatotoxicity [8]
  HepSE_hepatitis: 1
Hepatotoxicity [9]
  HepSE_hepatic failure: 0
Hepatotoxicity [10]
  HepSE_hepatic necrosis: 0
Hepatotoxicity [11]
  HepSE_hepatomegaly: 0
Hepatotoxicity [12]
  HepSE_elevated liver function tests: 0
Hepatotoxicity [13]
  HepSE_cholelithiasis: 1
Hepatotoxicity [14]
  HepSE_liver function tests abnormal: 0

## CC(=O)OCC(CCn1cnc2cnc(N)nc21)COC(C)=O [FAMCICLOVIR]
Hepatotoxicity [1]
  HepSE_Combined Scores: 3
Hepatotoxicity [2]
  HepSE_bilirubinemia: 1
Hepatotoxicity [3]
  HepSE_cirrhosis: 0
Hepatotoxicity [4]
  HepSE_liver disease: 0
Hepatotoxicity [5]
  HepSE_jaundice: 1
Hepatotoxicity [6]
  HepSE_cholecystitis: 0
Hepatotoxicity [7]
  HepSE_liver fatty: 0
Hepatotoxicity [8]
  HepSE_hepatitis: 0
Hepatotoxicity [9]
  HepSE_hepatic failure: 0
Hepatotoxicity [10]
  HepSE_hepatic necrosis: 0
Hepatotoxicity [11]
  HepSE_hepatomegaly: 0
Hepatotoxicity [12]
  HepSE_elevated liver function tests: 0
Hepatotoxicity [13]
  HepSE_cholelithiasis: 0
Hepatotoxicity [14]
  HepSE_liver function tests abnormal: 1
